Where “and” joins values, the source holds several entries; their conditions need not be identical. Equal entries are not always repeated. Toxic doses and inconclusive results are not listed.
Tested on: P388 leukemia ip, CD2F1 mice, survival T/C
Assay: NCI In Vivo Anticancer Drug Screen. Data for tumor model P388 Leukemia (intraperitoneal) in CD2F1 (CDF1) mice
Conditions: endpoint: median survival time, higher = longer survival
How it was run: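 Mice carrying the transplanted tumor received test compound or vehicle. Survival was recorded in each group, and the value is the treated-group measurement divided by that of the vehicle-treated control group.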

[1] = dose: 100.0 mg/kg/injection, schedule: Q04DX003 (ip), vehicle: saline
[2] = dose: 200.0 mg/kg/injection, schedule: Q04DX003 (ip), vehicle: saline
[3] = dose: 50.0 mg/kg/injection, schedule: Q01DX009 (ip), vehicle: saline
[4] = dose: 100.0 mg/kg/injection, schedule: Q01DX009 (ip), vehicle: saline
[5] = dose: 200.0 mg/kg/injection, schedule: Q01DX009 (ip), vehicle: saline
[6] = dose: 50.0 mg/kg/injection, schedule: Q01DX005 (ip), vehicle: saline with Tween-80
[7] = dose: 100.0 mg/kg/injection, schedule: Q01DX005 (ip), vehicle: saline with Tween-80
[8] = dose: 200.0 mg/kg/injection, schedule: Q01DX005 (ip), vehicle: saline with Tween-80
[9] = dose: 100.0 mg/kg/injection, schedule: Q01DX009 (ip), vehicle: saline with Tween-80
[10] = dose: 200.0 mg/kg/injection, schedule: Q01DX009 (ip), vehicle: saline with Tween-80
[11] = dose: 12.5 mg/kg/injection, schedule: Q01DX005 (ip), vehicle: saline with Tween-80
[12] = dose: 25.0 mg/kg/injection, schedule: Q01DX005 (ip), vehicle: saline with Tween-80

In the case of `NC(=O)CSc1nnc2ccccn12`, the T/C (dose: 50.0 mg/kg/injection, schedule: Q04DX003 (ip), vehicle: saline) is reported as 92 % of control, the T/C [1] is reported as 100 % of control and the T/C [2] is reported as 104 % of control.

With `O=c1cc(CSc2ncnc3nc[nH]c23)[nH]c(=O)[nH]1` the T/C [3] was 106 % of control, the T/C [4] was 111 % of control and the T/C [5] was 108 % of control.

In the case of `Nc1nc2c(c(=O)[nH]1)N(C(=O)CCCCCCC(=O)N1c3c(nc(N)[nH]c3=O)NCC1CNc1ccc(C(=O)NC(CCC(=O)O)C(=O)O)cc1)C(CNc1ccc(C(=O)NC(CCC(=O)O)C(=O)O)cc1)CN2` (stereo unspecified) (tested in a mixture with another compound), the T/C [6] is reported as 100 % of control, the T/C [7] is reported as 96 % of control and the T/C [8] is reported as 100 % of control.

For `CN(Cc1ccccc1)C(=O)C(=O)c1c[nH]c2ccccc12`, the T/C [9] was 86 % of control and the T/C [10] was 90 % of control.

`COc1ccc2c(c1)CCC1C2=NN=C2CCCC21` (stereo unspecified) was tested, and the T/C (dose: 100.0 mg/kg/injection, schedule: Q01DX001 (ip), vehicle: Klucel (hydroxypropylcellulose) (HPC)) was 97 % of control, the T/C (dose: 200.0 mg/kg/injection, schedule: Q01DX001 (ip), vehicle: Klucel (hydroxypropylcellulose) (HPC)) was 88 % of control and the T/C (dose: 400.0 mg/kg/injection, schedule: Q01DX001 (ip), vehicle: Klucel (hydroxypropylcellulose) (HPC)) was 92 % of control.

With `Cn1c(CN(Cc2nc3ccccc3n2C)Cc2nc3ccccc3n2C)nc2ccccc21` the T/C [11] was 103 % of control and 98 % of control, the T/C [12] was 100 % of control and 102 % of control and the T/C [6] was 103 % of control and 110 % of control.

In the case of `C=C1C(=O)OC2CCCCC12` (stereo unspecified), the T/C (dose: 50.0 mg/kg/injection, schedule: Q04DX003 (ip), vehicle: Klucel (hydroxypropylcellulose) (HPC)) is reported as 104 % of control, the T/C (dose: 100.0 mg/kg/injection, schedule: Q04DX003 (ip), vehicle: Klucel (hydroxypropylcellulose) (HPC)) is reported as 105 % of control and the T/C (dose: 200.0 mg/kg/injection, schedule: Q04DX003 (ip), vehicle: Klucel (hydroxypropylcellulose) (HPC)) is reported as 101 % of control.

For `CC(NNC(=S)N1CCC(c2ccccc2)CC1)c1cc2ccccc2cn1` (stereo unspecified), the T/C (dose: 6.25 mg/kg/injection, schedule: Q01DX005 (ip), vehicle: saline with Tween-80) was 97 % of control, the T/C [11] was 103 % of control and the T/C [12] was 111 % of control.

For `CN(C)C(=O)NC1CCC2CCCCC2C1` (stereo unspecified), the T/C (dose: 100.0 mg/kg/injection, schedule: Q01DX001 (ip), vehicle: saline) was 100 % of control, the T/C (dose: 200.0 mg/kg/injection, schedule: Q01DX001 (ip), vehicle: saline) was 99 % of control and the T/C (dose: 400.0 mg/kg/injection, schedule: Q01DX001 (ip), vehicle: saline) was 98 % of control.

With `[NH-]c1ccccc1[S-].[NH-]c1ccccc1[S-].[Zn]` the T/C [1] was 98 % of control, the T/C [2] was 95 % of control and the T/C (dose: 400.0 mg/kg/injection, schedule: Q04DX003 (ip), vehicle: saline) was 95 % of control.

In the case of `N=C(N)c1ccc(NN=Nc2cccc3c2Oc2ccccc2O3)cc1`, the T/C [6] is reported as 106 % of control, the T/C [7] is reported as 103 % of control and the T/C [8] is reported as 95 % of control.

`CCC1=CCC2C(=O)C3C(C(=O)C2C1)C1(c2ccccc2)OC3(c2ccccc2)c2ccccc21` (stereo unspecified) was tested, and the T/C (dose: 50.0 mg/kg/injection, schedule: Q01DX009 (ip), vehicle: saline with Tween-80) was 95 % of control, the T/C [9] was 88 % of control and the T/C [10] was 87 % of control.

`CCSc1nc2ccc(N=C/C=C/c3ccccc3)cc2s1` was tested, and the T/C (dose: 50.0 mg/kg/injection, schedule: Q01DX009 (ip), vehicle: Klucel (hydroxypropylcellulose) (HPC)) was 110 % of control, the T/C (dose: 100.0 mg/kg/injection, schedule: Q01DX009 (ip), vehicle: Klucel (hydroxypropylcellulose) (HPC)) was 98 % of control and the T/C (dose: 200.0 mg/kg/injection, schedule: Q01DX009 (ip), vehicle: Klucel (hydroxypropylcellulose) (HPC)) was 110 % of control.

For `Cc1cc(C)c(COCc2cc(C)c(C)cc2C)cc1C`, the T/C (dose: 25.0 mg/kg/injection, schedule: Q01DX009 (ip), vehicle: water) was 86 % of control, the T/C (dose: 100.0 mg/kg/injection, schedule: Q01DX009 (ip), vehicle: water) was 90 % of control and the T/C (dose: 200.0 mg/kg/injection, schedule: Q01DX009 (ip), vehicle: water) was 106 % of control. For the same compound, the T/C (dose: 400.0 mg/kg/injection, schedule: Q01DX009 (ip), vehicle: water) was 104 % of control.

`O=C(O)c1ccc2ccccc2n1` was tested, and the T/C (dose: 100.0 mg/kg/injection, schedule: Q04DX002 (ip), vehicle: saline) was 96 % of control, the T/C (dose: 200.0 mg/kg/injection, schedule: Q04DX002 (ip), vehicle: saline) was 94 % of control and the T/C (dose: 400.0 mg/kg/injection, schedule: Q04DX002 (ip), vehicle: saline) was 104 % of control.

In the case of `CCOC(=O)NCCCCC([NH-])C(=O)O.CCOC(=O)NCCCCC([NH-])C(=O)O.[Cu+2]` (stereo unspecified), the T/C [3] is reported as 101 % of control and the T/C [4] is reported as 92 % of control.

For `O=C(O)CC(/C=C\C(=O)C(=O)O)=C\O`, the T/C (dose: 1.56 mg/kg/injection, schedule: Q01DX009 (ip), vehicle: saline) was 100 % of control, the T/C (dose: 3.12 mg/kg/injection, schedule: Q01DX009 (ip), vehicle: saline) was 101 % of control and the T/C (dose: 6.25 mg/kg/injection, schedule: Q01DX009 (ip), vehicle: saline) was 100 % of control. For the same compound, the T/C (dose: 12.5 mg/kg/injection, schedule: Q01DX009 (ip), vehicle: saline) was 100 % of control and 114 % of control, the T/C (dose: 25.0 mg/kg/injection, schedule: Q01DX009 (ip), vehicle: saline) was 100 % of control and 109 % of control and the T/C [3] was 106 % of control. For the same compound, the T/C [4] was 112 % of control and the T/C [5] was 86 % of control.

In the case of `CC(=O)C(CCCn1c(=O)c2c(ncn2C)n(C)c1=O)C(C)=O`, the T/C (dose: 25.0 mg/kg/injection, schedule: Q01DX005 (ip), vehicle: Klucel (hydroxypropylcellulose) (HPC)) is reported as 102 % of control, the T/C (dose: 50.0 mg/kg/injection, schedule: Q01DX005 (ip), vehicle: Klucel (hydroxypropylcellulose) (HPC)) is reported as 105 % of control and the T/C (dose: 100.0 mg/kg/injection, schedule: Q01DX005 (ip), vehicle: Klucel (hydroxypropylcellulose) (HPC)) is reported as 98 % of control.

`O=C1OC(C2OC(=O)C(=O)C2C(=O)c2ccccc2)C(C(=O)c2ccccc2)C1=O` (stereo unspecified) was tested, and the T/C (dose: 60.0 mg/kg/injection, schedule: Q01DX005 (ip), vehicle: saline with Tween-80) was 111 % of control, the T/C (dose: 120.0 mg/kg/injection, schedule: Q01DX005 (ip), vehicle: saline with Tween-80) was 108 % of control and the T/C (dose: 240.0 mg/kg/injection, schedule: Q01DX005 (ip), vehicle: saline with Tween-80) was 108 % of control.

In the case of `O=C1C=CC2(CCC23C=C(Br)C(=O)O3)O1` (stereo unspecified), the T/C (dose: 5.0 mg/kg/injection, schedule: Q01DX009 (ip), vehicle: Klucel (hydroxypropylcellulose) (HPC)) is reported as 102 % of control, the T/C (dose: 10.0 mg/kg/injection, schedule: Q01DX009 (ip), vehicle: Klucel (hydroxypropylcellulose) (HPC)) is reported as 108 % of control and the T/C (dose: 20.0 mg/kg/injection, schedule: Q01DX009 (ip), vehicle: Klucel (hydroxypropylcellulose) (HPC)) is reported as 106 % of control.

In the case of `Nc1ccc(Br)cc1N`, the T/C (dose: 50.0 mg/kg/injection, schedule: Q01DX009 (ip), vehicle: distilled water + Tween-80 + alcohol) is reported as 111 % of control, the T/C (dose: 50.0 mg/kg/injection, schedule: Q01DX009 (ip), vehicle: other) is reported as 100 % of control and the T/C (dose: 50.0 mg/kg/injection, schedule: Q01DX009 (ip), vehicle: saline + Tween-80 + alcohol) is reported as 95 % of control. The T/C (dose: 100.0 mg/kg/injection, schedule: Q01DX009 (ip), vehicle: distilled water + Tween-80 + alcohol) was 120 % of control, the T/C (dose: 100.0 mg/kg/injection, schedule: Q01DX009 (ip), vehicle: other) was 98 % of control and the T/C (dose: 100.0 mg/kg/injection, schedule: Q01DX009 (ip), vehicle: saline + Tween-80 + alcohol) was 107 % of control. The T/C (dose: 200.0 mg/kg/injection, schedule: Q01DX009 (ip), vehicle: distilled water + Tween-80 + alcohol) was 150 % of control, the T/C (dose: 200.0 mg/kg/injection, schedule: Q01DX009 (ip), vehicle: other) was 106 % of control and the T/C (dose: 200.0 mg/kg/injection, schedule: Q01DX009 (ip), vehicle: saline + Tween-80 + alcohol) was 99 % of control.

For `OCC12COCN1COC2`, the T/C [3] was 106 % of control and 92 % of control, the T/C [4] was 106 % of control and 111 % of control and the T/C [5] was 108 % of control and 118 % of control. The T/C (dose: 400.0 mg/kg/injection, schedule: Q01DX009 (ip), vehicle: saline) was 123 % of control.

`Cc1cn(CC2C=CC(CS[As](C)C)O2)c(=O)[nH]c1=O` (stereo unspecified) was tested, and the T/C (dose: 12.5 mg/kg/injection, schedule: Q01DX009 (ip), vehicle: distilled water + Tween-80) was 99 % of control, the T/C (dose: 25.0 mg/kg/injection, schedule: Q01DX009 (ip), vehicle: distilled water + Tween-80) was 108 % of control and the T/C (dose: 50.0 mg/kg/injection, schedule: Q01DX009 (ip), vehicle: distilled water + Tween-80) was 101 % of control. The T/C (dose: 100.0 mg/kg/injection, schedule: Q01DX009 (ip), vehicle: distilled water + Tween-80) was 119 % of control.
